Data from US20050148630A1, “Methods of preventing and treating non-opioid induced gastrointestinal dysfunction” (priority 2003, published 2005).

Columns and labels:
healthy volunteers = assay: Ascending dose level safety study (Phase I) of alvimopan, TID for 4 days; format: in vivo
From the text: This was an ascending dose level safety study (Phase I) intended to determine the frequency and severity of adverse events (AEs) and to estimate the maximum tolerated dose of alvimopan. Subjects were screened to ensure their status as healthy volunteers. They were only enrolled if they had no clinically significant abnormalities on history, physical, or laboratory examinations. Post study physical examination and laboratory tests, including serum chemistries and complete blood count, were performed.
Alvimopan or placebo was administered TID for 4 days.
One subject in each dose group was randomly assigned to receive placebo that was identical in appearance to the active study medication.
Forty-four subjects were randomized for treatment. One subject at each dose level received placebo (N=5); the rest received alvimopan. […] The incidence of gastrointestinal AEs increased with increasing dose of alvimopan. One or more incidence of mild or moderate “abdominal pain” was reported by 83-100% of subjects receiving 18 or 54 mg daily doses (6 or 18 mg TID), but was infrequent at lower doses (range 11-18%). One or more incidence of diarrhea was reported by 83% of subjects receiving 54 mg daily doses (18 mg TID), but was infrequent at lower doses (range 9-22%). One or more incidence of flatulence was reported by 50-78% of subjects receiving 18 or 54 mg daily doses (6 or 18 mg TID), but was less frequent at lower doses (range 18-33%). One subject receiving the highest dose, 54 mg/day (18 mg TID), withdrew during the second day of dosing due to adverse events of abdominal pain, nausea, and diarrhea.

[1] = test system: subjects with functional constipation; assay: Whole bowel transit (radio-opaque markers) and mean colonic transit time, placebo-controlled cross-over study; format: in vivo, human; details: 3 mg BID for 7 days
Description: A single-center, placebo-controlled, randomized, double-blind, balanced two period cross-over study of the effect of alvimopan on GI transit in subjects with functional constipation was carried out.
Subjects (n=24) meeting the initial screening criteria for functional constipation by history, and who had 3 or fewer stools during a 7-day screening period, were randomly assigned to receive initially either orally-administered alvimopan, 3 mg twice daily for 7 days or matching placebo. Following a two- to four-week washout period, subjects received the opposite treatment for a 7-day period.
(§1) Subjects underwent measurement of their whole bowel transit (radio-opaque markers) and oral-cecal transit (hydrogen-breath test) prior to receiving the first treatment (baseline) and at the end of each treatment period. During the screening and treatment periods, subjects recorded the time of each bowel movement (defecatory frequency), an assessment of each stool's consistency (using the Bristol Stool Form Scale), and an overall rating of their satisfaction with their bowel movements over each period (1-5 scale: 1=much worse than usual, 2=worse than usual, 3=no change, 4=better than usual, 5=much better than usual). Stool output per 7-day period was calculated from the weight of all stools collected during each treatment period (stools collected over the 7-day assessment period).
Whole bowel transit was determined by using a modification of the radio-opaque marker method developed by Metcalf et al., Gastroenterology, 1987, 92: 40-47. This method is reproducible and correlates well with scintigraphic methods of measuring colonic transit (Degen, et al., Gut, 1996, 39: 299-305). Subjects ingested, at 8:00 AM on the mornings of Days 3, 4, 5, one capsule containing 24 radio-opaque markers (Sitzmark; Konsyl Pharmaceuticals, Fort Worth, Tex.). Stools from Days 3 to 7 were collected and examined by x-ray for the presence of the radio-opaque markers. […] Weights were assigned to the six locations in the colon and a weighted average of the number of radio-opaque markers in the colon was calculated. […]
This single-center, randomized, placebo-controlled, crossover trial was designed to determine the effect of alvimopan on bowel transit of patients with chronic constipation. […] Safety and tolerability were assessed.
(§2) The following were performed for each test arm: WBT estimated by a weighted sum of retained radio-opaque markers (based on number and location in the colon on single x-ray 48 hours post marker ingestion) and mean colonic transit time (MCTT) calculated by the method of Metcalf et al., Gastroenterology, 1987, 92: 40-47; and bowel movement frequency (BMF) and symptoms by patient self-report diary card.

[2] = test system: subjects with functional constipation; assay: Oral-cecal transit time, lactulose hydrogen breath test, cross-over study; format: in vivo, human; details: 3 mg BID, Day 7, lactulose hydrogen breath test
From the text: as §1
The transit time for mouth to cecum, a reflection of small bowel transit, was measured utilizing the hydrogen breath test. […] The time between ingestion of lactulose (10 g) and the sustained increase in hydrogen in the breath (hydrogen concentration in end-expiratory breath samples as measured by gas chromatography) represents the oral-cecal transit time (OCTT). […] Breath samples were measured every 15 minutes following ingestion of the lactulose. Transit time was determined by the first time of three consecutive samples in which there was at least a doubling of the baseline breath hydrogen concentration. […]

[3] = test system: subjects with functional constipation; assay: Bowel movement frequency and symptoms by patient self-report diary card, cross-over study; format: in vivo, human
From the text: as §1
Each treatment period comprised seven days of dosing (oral alvimopan 3 mg or matching placebo, given at 8:00 AM and 8:00 PM). For each defecation, subjects recorded the time, date, and stool form (Bristol Stool Form Criteria) (Heaton, et al., Gut, 1991, 73-79). Subjects rated their overall satisfaction with their bowel movements for the treatment period on Day 7.
For Day 1 of each treatment period, the following procedures were conducted in the clinic prior to the morning dosing: a urine drug screen, and a urine/serum pregnancy test (when applicable), semi-supine (i.e., 45-degree angle, pillow, etc.) blood pressure and pulse rate measurements and recording of baseline signs and symptoms. All subjects received their first dose of alvimopan 3 mg or placebo after a light breakfast in the clinic at approximately 8 AM in the morning and according to the randomization schedule. Each dose of alvimopan or placebo was taken with 240 ml of still room-temperature water at each dosing occasion. Subjects were then dispensed the study drug to be taken until the evening dose on Day 5, as well as the Stizmark capsules containing the radio-opaque markers and discharged. Subjects were admitted to the study unit on the evening of Day 5 until completion of the transit studies on Day 7. They were asked to complete a medication diary with the times of morning and evening dosing as an outpatient, as well as any symptoms they experienced at home. Subjects collected all stools from Days 1 to 7. Subjects recorded the time, date, and stool form (Bristol Stool Form Criteria) (Heaton, et al., Gut, 1991, 73-79) for each defecation. Subjects rated their overall satisfaction with their bowel movements for the treatment period on Day 7.
(§3) This single-center, randomized, placebo-controlled, crossover trial was designed to determine the effect of alvimopan on bowel transit of patients with chronic constipation. Whole bowel transit (WBT), bowel movement frequency as total bowel movement (BM), and spontaneous complete BM (SCBM), BM symptoms of straining, discomfort, and satisfaction were compared between placebo and alvimopan (3 mg BID) for 7 days. Safety and tolerability were assessed.
as §2

[4] = test system: subjects with functional constipation; assay: Safety and tolerability in the cross-over study; format: in vivo, human; details: 3 mg BID for 7 days
From the text: Subjects were given a physical examination, vital signs, and blood and urine samples obtained for safety laboratory studies at the conclusion of their last treatment period. Any abnormal findings were followed until resolution.
as §3

Solubility in water = format: physicochemical; details: except at low or high pH conditions
[5] = 18 or 54 mg daily doses (6 or 18 mg TID)

Compound: C[C@H]1CN(C[C@H](Cc2ccccc2)C(=O)NCC(=O)O)CC[C@@]1(C)c1cccc(O)c1 [alvimopan, [[(2S)-2-[[(3R,4R)-4-(3-hydroxyphenyl)-3,4-dimethylpiperidin-1-yl]methyl]-3-phenylpropanoyl]amino]acetic acid dihydrate]
- subjects reporting one or more incidence of diarrhea (healthy volunteers; 54 mg daily doses (18 mg TID)): 83%
- subjects withdrawn due to adverse events of abdominal pain, nausea, and diarrhea (healthy volunteers; 54 mg/day (18 mg TID), second day of dosing): One
- subjects reporting one or more incidence of flatulence (healthy volunteers; [5]): 50-78%
- subjects reporting one or more incidence of mild or moderate abdominal pain (healthy volunteers; [5]): 83-100%
- tolerability (healthy volunteers; doses up to 54 mg daily (18 mg TID) for 4 days): generally well tolerated
- subjects reporting one or more incidence of diarrhea (healthy volunteers; lower doses): 9-22%
- subjects reporting one or more incidence of flatulence (healthy volunteers; lower doses): 18-33%
- subjects reporting one or more incidence of mild or moderate abdominal pain (healthy volunteers; lower doses): 11-18%
- reduction in MCTT versus placebo [1]: 19%
- reduction in weighted sum of retained radio-opaque markers (faster whole bowel transit) versus placebo ([1]; p<0.049): 32%
- mean colonic transit time (MCTT) ([1]; placebo 69±5): 56 ± 6 h
- WBT, weighted sum of retained radio-opaque markers ([1]; placebo 160±17): 109±17 WSM
- OCTT v. placebo [2]: not changed
- BM consistency compared to placebo ([3]; 3 mg BID for 7 days): improved
- BM discomfort compared to placebo ([3]; 3 mg BID for 7 days): improved
- BM satisfaction compared to placebo ([3]; 3 mg BID for 7 days): improved
- BM straining compared to placebo ([3]; 3 mg BID for 7 days): improved
- mean increase above baseline for SCBM ([3]; 3 mg BID over 7 days, placebo 0.3): 0.6
- mean increase above baseline for BMF ([3]; 3 mg BID over 7 days, placebo 0.5): 1.0
- mean bowel movement Bristol Stool Form Scale score ([3]; FIG. 2, 3 mg BID for 7 days): increased
- % of bowel movements with no/mild straining or discomfort ([3]; FIG. 3, 3 mg BID for 7 days): increased
- incidence of GI-related adverse effects versus placebo arm [4]: slightly higher
- severity of adverse events ([4]; both arms): generally mild
- premature discontinuation due to an adverse effect ([4]; either treatment arm): No subjects prematurely discontinued
- solubility in water (Solubility in water): low solubility
